Results published in paper PMC7998700, “Mycobacterial Epoxide Hydrolase EphD Is Inhibited by Urea and Thiourea Derivatives” (International Journal of Molecular Sciences, 2021).

Assays:
EphB = EphB (Mycobacterium tuberculosis, UniProt I6YC03); test: radio-TLC substrate conversion to diol, E. coli lysate supernatant; format: biochemical; details: 50 mM Tris-HCl pH 7.5, 37 °C; labelled compound
EphG = EphG (Mycobacterium tuberculosis, UniProt O33283)
EphA = EphA (Mycobacterium tuberculosis, UniProt I6YGS0)
EphA, sequence (I6YGS0 whole entry): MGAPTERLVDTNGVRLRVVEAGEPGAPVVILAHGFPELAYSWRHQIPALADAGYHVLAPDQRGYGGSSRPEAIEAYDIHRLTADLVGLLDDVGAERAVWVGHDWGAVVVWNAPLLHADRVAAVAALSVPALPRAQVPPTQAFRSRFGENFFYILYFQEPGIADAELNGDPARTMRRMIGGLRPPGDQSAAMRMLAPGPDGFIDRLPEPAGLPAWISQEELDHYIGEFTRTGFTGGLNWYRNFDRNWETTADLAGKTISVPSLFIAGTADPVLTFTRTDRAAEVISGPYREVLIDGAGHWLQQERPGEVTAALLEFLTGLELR

EphF [1] = molecular target: T1, EphF (Mycobacterium tuberculosis, UniProt P96811)
T1 sequence (P96811 entry or part of it): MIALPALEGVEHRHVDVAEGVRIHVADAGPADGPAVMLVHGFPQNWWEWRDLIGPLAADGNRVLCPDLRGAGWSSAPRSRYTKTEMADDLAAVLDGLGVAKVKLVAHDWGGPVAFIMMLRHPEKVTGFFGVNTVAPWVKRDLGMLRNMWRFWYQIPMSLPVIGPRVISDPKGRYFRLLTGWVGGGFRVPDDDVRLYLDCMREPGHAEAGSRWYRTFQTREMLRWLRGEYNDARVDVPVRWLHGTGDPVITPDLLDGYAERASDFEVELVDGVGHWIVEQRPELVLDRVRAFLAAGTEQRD

EphD [2] = molecular target: T2, EphD (Mycobacterium tuberculosis, UniProt P9WGS3)
T2 sequence (P9WGS3 whole entry): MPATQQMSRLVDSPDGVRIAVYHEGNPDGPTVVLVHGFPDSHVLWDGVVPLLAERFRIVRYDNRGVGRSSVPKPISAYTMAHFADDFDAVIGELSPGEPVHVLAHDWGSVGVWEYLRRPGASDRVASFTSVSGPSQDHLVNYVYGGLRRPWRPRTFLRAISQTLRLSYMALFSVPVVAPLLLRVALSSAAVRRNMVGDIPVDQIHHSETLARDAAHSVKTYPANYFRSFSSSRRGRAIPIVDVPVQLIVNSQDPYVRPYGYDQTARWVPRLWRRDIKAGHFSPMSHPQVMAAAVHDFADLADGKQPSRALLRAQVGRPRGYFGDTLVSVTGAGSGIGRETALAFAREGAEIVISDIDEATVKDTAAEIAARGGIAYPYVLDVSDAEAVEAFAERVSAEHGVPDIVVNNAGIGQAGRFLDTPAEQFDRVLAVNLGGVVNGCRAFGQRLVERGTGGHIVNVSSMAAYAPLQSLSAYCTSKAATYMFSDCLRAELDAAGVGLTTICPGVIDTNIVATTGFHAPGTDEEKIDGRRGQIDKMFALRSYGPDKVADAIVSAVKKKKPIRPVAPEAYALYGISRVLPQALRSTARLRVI

EphE = EphE (Mycobacterium tuberculosis, UniProt I6YCQ4)
EphE, sequence (I6YCQ4 entry or part of it): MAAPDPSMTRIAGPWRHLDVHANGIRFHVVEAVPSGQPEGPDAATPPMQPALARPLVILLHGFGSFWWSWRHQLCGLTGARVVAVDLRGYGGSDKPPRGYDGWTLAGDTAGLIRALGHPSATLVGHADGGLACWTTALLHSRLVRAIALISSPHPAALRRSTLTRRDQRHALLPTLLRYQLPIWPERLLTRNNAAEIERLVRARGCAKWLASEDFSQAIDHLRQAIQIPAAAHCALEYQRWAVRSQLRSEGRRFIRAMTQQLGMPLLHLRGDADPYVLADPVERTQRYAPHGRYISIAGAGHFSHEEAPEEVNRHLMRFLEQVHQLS

EphF [3] = molecular target: T1, EphF; test: radio-TLC epoxide hydrolase assay, E. coli lysate supernatant; format: biochemical; details: substrate [14C]-9,10-cis-epoxystearic acid; 50 mM Tris-HCl pH 7.5, 37 °C, 15 min; without EthA; 2% DMSO
EphD [4] = molecular target: T2, EphD; test: as above; format: biochemical; details: substrate [14C]-9,10-cis-epoxystearic acid; 50 mM Tris-HCl pH 7.5, 37 °C, 15 min; without EthA; 2% DMSO

EphG, sequence (O33283 whole entry): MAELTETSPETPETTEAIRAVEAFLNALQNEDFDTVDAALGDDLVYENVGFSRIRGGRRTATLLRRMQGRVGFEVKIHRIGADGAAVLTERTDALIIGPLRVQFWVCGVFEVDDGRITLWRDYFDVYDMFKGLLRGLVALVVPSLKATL
EphB, sequence (I6YC03 whole entry): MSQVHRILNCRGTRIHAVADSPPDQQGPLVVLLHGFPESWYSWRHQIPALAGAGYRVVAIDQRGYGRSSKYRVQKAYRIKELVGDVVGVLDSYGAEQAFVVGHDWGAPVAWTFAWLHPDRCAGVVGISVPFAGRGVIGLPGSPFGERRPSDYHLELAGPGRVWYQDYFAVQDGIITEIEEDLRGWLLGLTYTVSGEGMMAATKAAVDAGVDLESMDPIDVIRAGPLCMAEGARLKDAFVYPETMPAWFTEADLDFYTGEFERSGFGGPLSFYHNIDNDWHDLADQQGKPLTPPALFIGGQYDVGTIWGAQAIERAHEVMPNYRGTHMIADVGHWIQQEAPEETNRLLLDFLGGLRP

SMILES	radio-TLC substrate conversion to diol, E. coli lysate supernatant (EphB)	radio-TLC substrate conversion to diol, E. coli lysate supernatant (EphG)	radio-TLC substrate conversion to diol, E. coli lysate supernatant (EphA)	radio-TLC substrate conversion to diol, E. coli lysate supernatant (EphF [1])	radio-TLC substrate conversion to diol, E. coli lysate supernatant (EphD [2])	radio-TLC substrate conversion to diol, E. coli lysate supernatant (EphE)	% inhibition at 10 μg/mL (EphF [3])	% inhibition at 10 μg/mL (EphD [4])
CCCCCCCC[C@H]1O[C@H]1CCCCCCCC(=O)O [9,10-cis-epoxystearic acid]	The EH activity in each reaction was expressed as a substrate conversion percentage	The EH activity in each reaction was expressed as a substrate conversion percentage	The EH activity in each reaction was expressed as a substrate conversion percentage	The EH activity in each reaction was expressed as a substrate conversion percentage	The EH activity in each reaction was expressed as a substrate conversion percentage	The EH activity in each reaction was expressed as a substrate conversion percentage	–	–
CC(C)CCOc1ccc(NC(=S)Nc2ccc(OCCC(C)C)cc2)cc1 [ISO, 4,4′-diisoamyloxydiphenylthiourea]	–	–	–	–	–	–	The activities of EphD and EphF are inhibited by ISO	The activities of EphD and EphF are inhibited by ISO
